Data taken from US4094908A, “Alpha-substituted benzhydrol derivatives” (Richter Gedeon Vegyeszeti Gyar Rt., priority 1973, dated 1978).

How the values were obtained:
[1] = system: liver microsomal enzyme system; test: Promotion or inhibition of the liver microsomal enzyme system; format: in vivo; settings: in words
From the text: Tests per the methods described herein have shown compounds to be either effective in the promotion or inhibition of the liver microsomal enzyme system as follows: […]

hexobarbital oxidase [2] = test: Enzyme inhibiting ability in vivo: change of hexobarbital oxidase activity (hexobarbital narcosis period); design: species or system Female Wistar rats; settings: in words, even 48 hours after administration
Description: (§1) Female Wistar rats, each weighing 80 to 100 g., were treated orally with a single 0.3 mM/kg. dosage of the active agent. 24 and 48 hours after the administration of the active agent, respectively, the animals were narcotized with 40 mg./kg. i.v. dosage of hexobarbital sodium, and the time elapsed until complete wakening was measured (Noordhock, J.: Eur. J. Pharmacol. 3, 242, 1968). The data were recorded, and the mean values, the standard errors, as well as the percentage increase with respect to the controls were calculated for each group. […] The hexobarbital concentration of the plasma, measured on the instant of wakening, was the same for both the treated and the control animals, thus the increase of narcosis period was not due to a certain central nervous interaction (Jori, A., Bianchatti, A., Presentini, P. E.: Biochem. Pharmacol. 19, 2687, 1970).

central nervous system = format: in vivo, mice and rats; settings: in words; in contrast with phenobarbital
From the text: The central nervous activities of the compounds according to the invention were examined on mice and rats with the following methods: electroshock (Swinyard, E. A., Brown, W. C., Goodman, L. S.: J. Pharmacol. Exp. Ther. 106, 319, 1952), metrazol spasm (Everett, G. M., Richards, R. K.: J. Pharmacol. Exp. Ther. 81, 402: 1944), thiosemicarbezide spasm (Da Venzo, J. P. Greig, M. E., Cormin, M. A.: Amer. J. Physiol. 201, 833: 1961), strychnine spasm (Kerley, T. L., Richards, A. G., Begley, R. W., Abreu, B. B. Wesver, L. C.: J. Pharmacol. Exp. Ther. 132, 360: 1961), nicotine spasm (Stone, C. A., Mecklenburg, K. L., Torhans, M. L.: Arch. Int. Pharmacodyn. 117, 419: 1958), rotarod test (Kinnard, W. C., Carr, C. J.: J. Pharmacol. Expt. Ther. 121, 3, 54: 1957), physistigmine lethality preventing effect (Nose, T., Kojima, M.: Europ. J. Pharmacol. 10, 83: 1970), yohimbine potentiation effect (Quinton, R. M.: Brit. J. Pharmacol. 21, 51: 1963), and analgesic activity (Bianchi, G., Franceschini, J.: Brit. J. Pharm. Chemother. 9, 280: 1954). As reference substance, phenobarbital was used. […]

hexobarbital oxidase [3] = test: Enzyme-inducing potency: in vivo hexobarbital oxidase activity (duration of hexobarbital narcosis); design: species or system Female Wistar rats; settings: 24 hours before hexobarbital
Description: as §1, with “Female Wistar rats, each weighing 80 to 100 g., were treated orally with a single 0.3 mM/kg. dosage of the active agent.” left out
The enzyme-inducing potency of the new compounds was determined by several methods. One of these methods was the in vivo measurement of hexobarbital oxidase activity.
The decrease of narcosis period is due to the fact that the new compounds according to the invention accelerate the elimination of hexobarbital, a foreign substance, from the body. When administering the compound to be tested in a single dosage and measuring the duration of hexobarbital narcosis 24 hours after the administration, the following results are obtained: […]

[4] = system: bromosulfophthalein elimination; test: Bromosulfophthalein (BSP) concentration of the plasm after pre-treatment; format: in vivo; settings: 24 hours after pre-treatment; after i.v. bromsulfophthaleine
Description: The bromosulfophthalein (BSP) concentration of the plasm was determined 24 hours after pre-treatment with the compounds of the formula (I) and after the intravenous administration of bromsulfophthaleine, respectively (Varga, F., Fisher, E.: Acta Physiol. Hung. 36, 431, 1969).

[5] = Toxicity: perished animals/tested animals; format: in vivo
From the text: Despite its disadvantageous properties, phenobarbital is widely used in the treatment of neonatal jaundice. In order to enable a better comparison, Table 8 indicates the respective dosages in which phenobarbital causes lethal respiration paralysis, while the compounds according to the invention are completely innocuous.

[6] = system: UDP-glucoronyltransferase; test: UDP-glucuronyltransferase activity of liver tissues removed from pre-treated animals (bilirubin conjugation); format: in vivo; settings: liver tissues of pre-treated animals incubated with bilirubin
Description: In an in vivo test, liver tissues removed from animals pre-treated with compounds of the formula (I) were incubated in the presence of bilirubin, in order to determine the UDP-glucoronyltransferase activity of the liver tissues (Adlard, B. P. F., Lester, R. G., Lathe, G. H.: Biochem Pharmacol. 18, 59, 1969).

[7] = system: liver microsomal enzyme system; test: Biological halving period of hexobarbital and hexobarbital concentration at wakening; format: in vivo; settings: pre-treated 24 hours prior to hexobarbital; female rats 150 g
meprobamate elimination = test: Biological halving period of meprobamate after pre-treatment; format: in vivo; settings: 24 hours after pre-treatment
Description: The biological halving period of meprobamate was determined 24 hours after pre-treatment with the compounds of the formula (I) (Ludwig, B. J., Hoffman, A. J.; Arch. Biochem. 72, 234, 1957).

bilirubin elimination = test: Bilirubin elimination under in vivo conditions; design: species or system rats
Description: When examining the bilirubin elimination under in vivo conditions on rats pre-treated with E 15 or phenobarbital, respectively, and challenged intravenously with a dosage of 30 mg./kg. of free bilirubin, the following biological halving periods were determined (Krueger, H., Higginson, J.: Proc. Soc. Exp. Biol. Med. 107, 43, 1961): […]

Compound | Potency among the enzyme inducing or inhibiting compounds [1] | Inhibition of the microsomal enzyme / xenobiotic elimination, duration (hexobarbital oxidase [2]) | Effect on the liver microsomal enzyme system (inducing or inhibiting) [1] | Duration and strength of inducing effect compared with phenobarbital [1] | Central nervous effects (central nervous system) | Sleeping period ± standard error (hexobarbital oxidase [3]; 5 mg./kg. single dosage) | Sleeping period ± standard error (hexobarbital oxidase [3]; 10 mg./kg. single dosage) | Sleeping period ± standard error (hexobarbital oxidase [3]; 20 mg./kg. single dosage) | Sleeping period ± standard error (hexobarbital oxidase [3]; 40 mg./kg. single dosage) | BSP concentration of the plasm [4] | Perished animals/tested animals ([5]; 40 mg./kg) | Perished animals/tested animals ([5]; 80 mg./kg) | Perished animals/tested animals ([5]; 160 mg./kg) | Perished animals/tested animals ([5]; 320 mg./kg) | Perished animals/tested animals ([5]; 640 mg./kg) | Conjugated bilirubine [6] | other results
C=CC(O)(c1ccccc1)c1ccc(OC)cc1OC (stereo not drawn) [2,4-dimethoxy-α-vinylbenzhydrol, 2,4-dimethoxy-α-vinyl-benzhydrol] | particularly potent | long-lasting inhibition, the degree of which remains significant even 48 hours after administration |  |  |  |  |  |  |  |  |  |  |  |  |  |  | 
C=CC(O)(c1ccccc1)c1ccccc1F (stereo not drawn) [2-fluoro-α-vinyl-benzhydrol, 2-Fluoro-α-vinyl-benzhydrol] |  |  | particularly advantageous inducing effect | reaches that of phenobarbital | no central nervous effects |  |  |  |  |  |  |  |  |  |  |  | 
C=CC(O)(c1ccccc1)c1ccc(Cl)c(Cl)c1 (stereo not drawn) [3,4-dichloro-α-vinylbenzhydrol, 3,4-dichloro-α-vinyl-benzhydrol] | particularly potent |  |  |  |  |  |  |  |  |  |  |  |  |  |  |  | 
CCC(O)(c1ccccc1)c1cccc(Cl)c1 (stereo not drawn) [E 9, 3-chloro-α-ethyl-benzhydrol] |  |  | particularly advantageous inducing effect | reaches that of phenobarbital | no central nervous effects | 21.7 ± 2.0 | 15.2 ± 1.4 | 13.6 ± 1.4 | 12.4 ± 1.2 | 7.6 μg./mg. plasm | 0/10 | 0/10 | 0/10 | 0/10 | 0/10 | 36.7 ± 3.2 µg/g/h | 
CCC(O)(c1ccccc1)c1ccc(Cl)cc1Cl (stereo not drawn) [E 11, 2,4-dichloro-α-ethyl-benzhydrol] |  |  | particularly advantageous inducing effect | reaches that of phenobarbital | no central nervous effects | 22.0 ± 2.1 | 16.4 ± 1.6 | 15.0 ± 1.4 | 13.0 ± 1.2 | 5.4 μg./mg. plasm | 0/10 | 0/10 | 0/10 | 0/10 | 0/10 | 35.7 ± 2.8 µg/g/h | t1/2 (biological halving period of hexobarbital) [7]: 26 min.; t1/2 (biological halving period of meprobamate) (meprobamate elimination): 2.8 hours
CCC(O)(c1ccccc1)c1cccc(C(F)(F)F)c1 (stereo not drawn) [E 15, 3-Trifluoromethyl-α-ethyl-benzhydrol] | particularly potent |  | particularly advantageous inducing effect | reaches that of phenobarbital | no central nervous effects | 18.0 ± 1.7 | 14.2 ± 1.5 | 10.6 ± 1.2 | 8.8 ± 0.9 | 5.0 μg./mg. plasm | 0/10 | 0/10 | 0/10 | 0/10 | 0/10 | 37.4 ± 3.6 µg/g/h | t1/2 (biological halving period of hexobarbital) [7]: 23 min.; t1/2 (biological halving period of meprobamate) (meprobamate elimination): 2.1 hours; t1/2 (biological halving period of bilirubin) (bilirubin elimination; pre-treated rats, 30 mg./kg. free bilirubin i.v.): 7 min; Acceleration of bilirubin elimination compared with phenobarbital (bilirubin elimination; rats, in words): about twice stronger than that of phenobarbital
CCC(O)(c1ccccc1)c1ccccc1OC (stereo not drawn) [E 16, 2-methoxy-α-ethyl-benzhydrol] | particularly potent | inhibit the elimination of xenobiotic agents and the inactivation thereof in the liver for a long time |  |  |  |  |  |  |  |  |  |  |  |  |  |  | Inhibition of the microsomal enzyme / xenobiotic elimination, duration (hexobarbital oxidase [2]; listed as 2-methoxy-α-ethylbenzhydrol): long-lasting inhibition, the degree of which remains significant even 48 hours after administration
CCN(CC)CCOc1ccc(C(O)(CC)c2ccccc2)cc1 (stereo not drawn) [E 17, 4-(β-diethylaminoethoxy)-α-ethyl-benzhydrol] | particularly potent | inhibit the elimination of xenobiotic agents and the inactivation thereof in the liver for a long time |  |  |  |  |  |  |  |  |  |  |  |  |  |  | Inhibition of the microsomal enzyme / xenobiotic elimination, duration (hexobarbital oxidase [2]; listed as 4-(β-diethylaminoethoxy)-α-ethyl-benzhydrol): long-lasting inhibition, the degree of which remains significant even 48 hours after administration
CCC(O)(c1ccccc1)c1cc(C)ccc1C (stereo not drawn) [E 20, 2,5-dimethyl-α-ethyl-benzhydrol] | particularly potent |  | particularly advantageous inducing effect | reaches that of phenobarbital | no central nervous effects | 23.8 ± 1.9 | 18.76 ± 1.9 |  | 13.0 ± 1.2 |  |  |  |  |  |  | 35.1 ± 2.6 µg/g/h | 
